We go through two molecules from patent US10674728B2, “Pesticidal compositions” (SYNGENTA PARTICIPATIONS AG, priority 2016, dated 2020).

One experiment relates to Rhizoctonia solani. The experiment is described as follows: Tests against Rhizoctonia solani (foot rot, damping-off), growth inhibition in microtiter plate. Particulars: 72 hrs, 24° C., read-out: Observed % activity. It is filed as cell-based.
For another experiment, the system named is Pyricularia orzyae. Nature of the experiment: microbe, parasite or virus in culture. The experiment is classed as cell-based. As to conditions: 72 h, read-out: Observed % activity.
In experiment [1] the test system is Glomerella lagenarium syn. Colletotrichum lagenarium. The experiment is described as follows: Tests against Glomerella lagenarium (anthracnose of cucurbits), growth inhibition in microtiter plate. It is filed as cell-based. Particulars: Colletotrichum orbiculare, 72 hrs, 24° C., read-out: Observed % activity.
Experiment [2] has as its system Rice (Oryza sativa L.) of the local variety ADT45. The experiment is described as follows: Heat stress mitigation field trials in rice, grain yield. Particulars: 10 gAl/Ha, foliar spray at panicle formation (BBCH 32), hot season. The experiment is classed as in vivo. On the procedure:
Tests were conducted to determine the heat stress mitigation efficacy of compositions of the present invention.
Trials were conducted in the Tamil Nadu rice production area (India) during the hot season in 2016.
Rice (Oryza sativa L.) of the local variety ADT45 was mechanically transplanted at four plants per hill with a plant spacing of 16 cm and a row spacing of 30 cm. All trials were performed in good level of water management. Fertilizer was applied in accordance with the best local practice across the trial area.
Commercial treated seeds (no neonicotinoids as seed treatments) were used. Weed control was according to the best local practice in order to provide excellent weed control. Foliar fungicides and insecticides were applied according to common practice (no products that contain neonicotinoids or strobilurins).
The trial design was a randomized bloc design. Plot size was 40 m^2 (4 m width [12 rows] by 10 m row length). Each trial had four replicates. In total, eleven trials were conducted.
Treatments were applied with small-plot hand-held boom sprayer as broadcast foliar spray in close proximity to leaf/canopy surface (25-40 cm distance from the crop), at the following different treatment timings: panicle initiation (BBCH 30), panicle formation (BBCH 32), spikelet differentiation (BBCH 35) and meiosis (BBCH 39).

The mark [3] stands for this setting: (A) Formula (Ia) 10.0 ppm alone.

`COc1cccc(Nc2nc(F)nc3[nH]cnc23)c1` [Formula (Ia)]: the inhibition at 5 ppm in the experiment with Rhizoctonia solani ((A) Formula (Ia) 5.0 ppm alone, inhibition of growth, photometric) came out at 7%; in experiment [1] ((A) Formula (Ia) 5.0 ppm alone), 0%. In addition, the inhibition at 10 ppm is 0% with Rhizoctonia solani (setting [3]), 3% in the experiment on Pyricularia orzyae and 0% in experiment [1] (setting [3]). The inhibition at 20 ppm in the experiment with Rhizoctonia solani ((A) Formula (Ia) 20.0 ppm alone) is 0%. Besides, the inhibition at 0.1563 ppm in the experiment with Pyricularia orzyae turned out to be 0%. Besides, the inhibition at 0.625 ppm in experiment [1] ((A) Formula (Ia) 0.6250 ppm alone, inhibition of growth, photometric at 620 nm) came to 5%. The inhibition at 1.25 ppm in experiment [1] ((A) Formula (Ia) 1.25 ppm alone) is 0%. For the same molecule, the inhibition at 2.5 ppm in experiment [1] ((A) Formula (Ia) 2.5 ppm alone) stood at 2%. The “Average yield increase compared to UTC” value in experiment [2] was found to be 4.4%. The “Yield at 14% MC” value in experiment [2] is reported as 6820 kg/ha.
For `CC1COC(Cn2cncn2)(c2ccc(Oc3ccc(Cl)cc3)cc2Cl)O1` (stereo not shown) [Difenoconazole, difenoconazole, reference compound], the inhibition at 2 ppm with Rhizoctonia solani ((B) Difenoconazole 2.0 ppm alone) was determined as 47%. Further, in the experiment on Pyricularia orzyae, the inhibition at 0.0625 ppm worked out at 34% and the inhibition at 0.25 ppm came to 71%. Also, the inhibition at 0.25 ppm in experiment [1] ((B) Difenoconazole 0.25 ppm alone) came out at 36%.
